Experimental data published in ChEMBL document CHEMBL3882387, “Combination of selected analgesics and COX-II inhibitors” (2005).

Assays:
Format in all cases: functional
Rattus norvegicus [1] = assay: (§1) Analgesic activity in rat assessed as reduction in baking yeast suspension-induced hind paw oedema by measuring combination effect at 46.4 mg/kg, po co-administered with 215 mg/kg COX2 inhibitor celecoxib (celebrex) 1 hr prior to compound addition by Randall-selitto test relative to control; parameters: scale not given: the % may be the effect or the level left
Rattus norvegicus [2] = assay: Analgesic activity in rat assessed as reduction in baking yeast suspension-induced hind paw oedema by measuring combination effect at 21.5 mg/kg, po co-administered with 215 mg/kg COX2 inhibitor celecoxib (celebrex) 1 hr prior to compound addition by Randall-selitto test relative to control; parameters: scale not given: the % may be the effect or the level left
Rattus norvegicus [3] = assay: as §1, with “68.1” for “46.4”, “coadministered” for “co-administered”, “addition measured after 15 to 75 mins” for “addition”; parameters: scale not given: the % may be the effect or the level left
Rattus norvegicus [4] = assay: as §1, with “68.1” for “46.4”, “coadministered” for “co-administered”, “addition measured after 75 to 90 mins” for “addition”; parameters: scale not given: the % may be the effect or the level left
Rattus norvegicus [5] = assay: Analgesic activity in rat assessed as reduction in baking yeast suspension-induced hind paw oedema at 215 mg/kg, po pretreated for 1 hr followed by 31 mg/kg (1R,2R)-3-(3-dimethylamino-l-ethyl-2-methyl-propyl)-phenol; hydrochloride addition by Randall-selitto test relative to control; parameters: scale not given: the % may be the effect or the level left
Rattus norvegicus [6] = assay: Analgesic activity in rat assessed as reduction in baking yeast suspension-induced hind paw oedema at 215 mg/kg, po pretreated for 1 hr followed by 46 mg/kg (1R,2R)-3-(3-dimethylamino-l-ethyl-2-methyl-propyl)-phenol; hydrochloride addition by Randall-selitto test relative to control; parameters: scale not given: the % may be the effect or the level left
Rattus norvegicus [7] = assay: (§2) Analgesic activity in rat assessed as reduction in baking yeast suspension-induced hind paw oedema at 215 mg/kg, po pretreated for 1 hr followed by 68.1 mg/kg (1RS,3RS,6RS)-6-dimethylaminomethyl-1-(3-[methoxy-phenyl)-cyclohexane-1,3-diol;hydrochloride addition measured after 15 to 75 mins by Randall-selitto test relative to control; parameters: scale not given: the % may be the effect or the level left
Rattus norvegicus [8] = assay: Analgesic activity in rat assessed as reduction in baking yeast suspension-induced hind paw oedema at 215 mg/kg, po pretreated for 1 hr followed by 46.4 mg/kg ((1R,2R)-3-(2-dimethylaminomethyl-cyclohexyl)-phenol;1 hydrochloride addition by Randall-selitto test relative to control; parameters: scale not given: the % may be the effect or the level left
Rattus norvegicus [9] = assay: Analgesic activity in rat assessed as reduction in baking yeast suspension-induced hind paw oedema at 215 mg/kg, po pretreated for 1 hr followed by 21.5 mg/kg (1S,2S)-3-(3-dimethylamino-l-ethyl-2-methyl-propyl)-phenol;hydrochloride addition by Randall-selitto test relative to control; parameters: scale not given: the % may be the effect or the level left
Rattus norvegicus [10] = assay: as §2, with “after 75” for “after 15”, “to 90” for “to 75”; parameters: scale not given: the % may be the effect or the level left
Rattus norvegicus [11] = assay: Analgesic activity in rat assessed as reduction in baking yeast suspension-induced hind paw oedema at 215 mg/kg, po co-administered with 31 mg/kg (1R,2R)-3-(3-dimethylamino-l-ethyl-2-methyl-propyl)-phenol; hydrochloride by Randall-selitto test relative to control; parameters: scale not given: the % may be the effect or the level left
Rattus norvegicus [12] = assay: Analgesic activity in po dosed rat assessed as reduction in acetic acid-induced writhings by measuring combination ED50 co-administered with COX2 inhibitor rofecoxib pretreated for 30 mins followed by acetic acid challenge measured after 10 to 35 mins by writhing test
Rattus norvegicus [13] = assay: Analgesic activity in po dosed formalin-induced chronic pain rat model assessed as reduction in behavioural change by measuring combination ED50 co-administered with COX2 inhibitor celecoxib measured up to 60 mins by formalin test; conditions: 1 h
Rattus norvegicus [14] = assay: Analgesic activity in rat assessed as reduction in baking yeast suspension-induced hind paw oedema at 31 mg/kg, po by measuring combination effect co-administered with 215 mg/kg COX2 inhibitor rofecoxib (vioxx) by Randall-selitto test relative to control; parameters: scale not given: the % may be the effect or the level left
Rattus norvegicus [15] = assay: Analgesic activity in rat assessed as reduction in baking yeast suspension-induced hind paw oedema by measuring combination effect at 31 mg/kg, po coadministered with 215 mg/kg COX2 inhibitor rofecoxib (vioxx) 1 hr prior to compound addition by Randall-selitto test relative to control; parameters: scale not given: the % may be the effect or the level left
Rattus norvegicus [16] = assay: Analgesic activity in rat assessed as reduction in baking yeast suspension-induced hind paw oedema by measuring combination effect at 46 mg/kg, po coadministered with 215 mg/kg COX2 inhibitor rofecoxib (vioxx) 1 hr prior to compound addition by Randall-selitto test relative to control; parameters: scale not given: the % may be the effect or the level left
Rattus norvegicus [17] = assay: Analgesic activity in rat assessed as reduction in baking yeast suspension-induced hind paw oedema by measuring combination effect at 31 mg/kg, po co-administered with 215 mg/kg COX2 inhibitor celecoxib (celebrex) by Randall-selitto test relative to control; parameters: scale not given: the % may be the effect or the level left
Rattus norvegicus [18] = assay: Analgesic activity in rat assessed as reduction in baking yeast suspension-induced hind paw oedema by measuring combination effect at 46 mg/kg, po co-administered with 215 mg/kg COX2 inhibitor celecoxib (celebrex) by Randall-selitto test relative to control; parameters: scale not given: the % may be the effect or the level left
Rattus norvegicus [19] = assay: Analgesic activity in rat assessed as reduction in baking yeast suspension-induced hind paw oedema at 31 mg/kg, po by measuring combination effect co-administered with 215 mg/kg COX2 inhibitor celecoxib by Randall-selitto test relative to control; parameters: scale not given: the % may be the effect or the level left

For `CN(C)C[C@@H]1CCCC[C@H]1c1cccc(O)c1.Cl`, the Activity (Rattus norvegicus [1]) was 84.1%.
`CC[C@H](c1cccc(O)c1)[C@H](C)CN(C)C.Cl` gave an Activity (Rattus norvegicus [2]) of 96.4%.
With `COc1cccc([C@@]2(O)C[C@H](O)CC[C@@H]2CN(C)C)c1.Cl` (racemic) the Activity (Rattus norvegicus [3]) was 109.3% and the Activity (Rattus norvegicus [4]) was 68.5%.
For `Cc1ccc(-c2cc(C(F)(F)F)nn2-c2ccc(S(N)(=O)=O)cc2)cc1` [CELECOXIB], the Activity (Rattus norvegicus [5]) was 17.3%, the Activity (Rattus norvegicus [6]) was 17.3% and the Activity (Rattus norvegicus [7]) was 16.7%. It also gave an Activity (Rattus norvegicus [8]) of 8.9%, an Activity (Rattus norvegicus [9]) of 8.9% and an Activity (Rattus norvegicus [10]) of 8%.
`CS(=O)(=O)c1ccc(C2=C(c3ccccc3)C(=O)OC2)cc1` [ROFECOXIB] showed an Activity (Rattus norvegicus [11]) of 11.2%, an Activity (Rattus norvegicus [5]) of 13% and an Activity (Rattus norvegicus [6]) of 13%.
Work on `CC[C@@H](c1cccc(O)c1)[C@@H](C)CN(C)C.Cl` [TAPENTADOL HYDROCHLORIDE] yielded an ED50 (Rattus norvegicus [12]) of 23.3 mg/kg, an ED50 (Rattus norvegicus [13]) of 60.6 mg/kg and an Activity (Rattus norvegicus [14]) of 29.7%. The Activity (Rattus norvegicus [15]) was 45.7%, the Activity (Rattus norvegicus [16]) was 59.8% and the Activity (Rattus norvegicus [17]) was 60.9%. It also gave an Activity (Rattus norvegicus [18]) of 86.1% and an Activity (Rattus norvegicus [19]) of 29.6%.
